According to patent US4935422A, “Acyloxypropanolamines” (E. I. Du Pont de Nemours and Company, priority 1988, dated 1990):

Each compound was assayed against β-adrenergic receptors (guinea pig right atria and guinea pig tracheal strips) (assay: Beta-blocking activity in vitro: guinea pig right atria and tracheal strips, shift of isoproterenol concentration-response curves (pA2)). Settings: β-blockade of isoproterenol response, 60-minute incubation, 37 °C; pA2 (-log KB) by method of Furchgott; tissue (atria or trachea) not stated in Table 1.
Protocol: Several of the compounds of the present invention were tested for β-blocking activity in vitro using guinea pig right atria and guinea pig tracheal strips mounted in a tissue bath containing oxygenated (95% O2 -5% CO2) Krebs physiological salt solution at 37° C. Each tissue was suspended between a fixed glass rod and a Statham Universal Transducer connected to a Beckman recorder. Atria were allowed to beat spontaneously under a loading tension of approximately 0.5 gm. Intrinsic depressant or stimulant activity was determined for each compound by progressively increasing concentrations in the tissue baths at 60-minute intervals. Tissues were not washed between increments. The maximum concentration showing little or no cardiodepressant activity was chosen for blockade experiments. Changes in rate in response to isoproterenol, a standard β-receptor agonist, were measured in the absence and presence of test compounds. Spiral strips of guinea pig trachea were suspended under 5 gm resting tension and incubated with phentolamine, tropolone and cocaine. Active tension was generated by addition of carbachol (3.0×10^-7 M) and decreases in tension in response to isoproterenol were quantitated. Cumulative concentration-response curves were produced with isoproterenol both before and after 60-minute incubation of test compounds with atria and trachea. Compounds with β-blocking activity shifted concentration-response curves to the right. The blocking potency of test compounds was estimated by computing pA2 values (-log […]) by the method of Furchgott, the Pharmacological Differentiation of Adrenergic Receptors, Ann. N.Y. Acad. Sci., 139:553-570 (1967). […] The degree of cardioselectivity was estimated from the ratio, kβ trachea/Kβ atria (10^(pA.sbsp.2^atria-pA.sbsp.2^trachea)). A ratio greater than one indicates cardioselectivity. Test drugs were dissolved in distilled water and added to the bath (30 mL) in a volume of 10 or 100 μL. All of the test compounds are active β-blockers. [drawing 10]

In order of falling pA2:
1. CC(C)(CNC(=O)N1CCCCC1)NCC(O)COC(=O)C1CC1 (stereo not shown) [Compound 10]  8.1
2. CC(C)(CNC(=O)N1CCOCC1)NCC(O)COC(=O)C1CC1 (stereo not shown) [Compound 11]  8.0
3. CC(C)C(=O)NCC(C)(C)NCC(O)COC(=O)C1=CCCC1 (stereo not shown) [Compound 8]  7.6
4. CC(C)(CNC(=O)C1CCOC1)NCC(O)COC(=O)/C=C/c1ccccc1 (stereo not shown) [Compound 12]  7.3
5. CC(C)C(=O)NCC(C)(C)NCC(O)COC(=O)C1CC=CCC1 (stereo not shown) [Compound 9]  6.9
6. CC(C)C(=O)NCC(C)(C)NCC(O)COC(=O)C1CCC1 (stereo not shown) [Compound 7]  6.5
7. CC(C)(C)NCC(O)COC(=O)C1CC1 (stereo not shown) [Compound 2]  6.5
8. CC(C)C(=O)NCC(C)(C)NCC(O)COC(=O)C(C)(C)C (stereo not shown) [Compound 5]  6.5
9. CC(C)(C)NCC(O)COC(=O)C(C)(C)C (stereo not shown) [Compound 3]  5.3
10. CC(C)(C)NCC(O)COC(=O)C1CCC1 (stereo not shown) [Compound 4]  5.0
